For 51 compounds, EC50 results are on record in BindingDB's records for doi:10.7270/Q2ZC817P (The Scripps Research Institute Molecular Screening Center, 2007).

Where a name gives a salt, the structure may show the parent alone.

In one assay the target is Sphingosine 1-phosphate receptor 1 (Homo sapiens, UniProt P21453). Description: S1P1 agonism potentiation – cell-based, potentiator mode, 60K MLSMR set, dose response (AID 466).
Sequence of Sphingosine 1-phosphate receptor 1 (P21453 whole entry): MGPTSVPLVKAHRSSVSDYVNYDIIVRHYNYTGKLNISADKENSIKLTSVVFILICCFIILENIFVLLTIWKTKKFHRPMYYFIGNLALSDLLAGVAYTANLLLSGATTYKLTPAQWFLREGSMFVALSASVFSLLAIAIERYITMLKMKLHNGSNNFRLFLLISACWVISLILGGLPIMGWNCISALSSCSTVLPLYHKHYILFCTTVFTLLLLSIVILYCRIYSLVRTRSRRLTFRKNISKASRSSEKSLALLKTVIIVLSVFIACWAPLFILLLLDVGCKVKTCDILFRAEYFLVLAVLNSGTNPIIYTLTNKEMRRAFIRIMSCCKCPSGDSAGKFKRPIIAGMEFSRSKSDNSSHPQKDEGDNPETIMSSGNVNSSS
Conditions: not given
One may read the EC50 as the concentration giving half of the maximal effect. As to `Cc1ccsc1C(=O)OCC(=O)c1cc(C)n(CC2CCCO2)c1C` (stereo unspecified) [3-methyl-2-thiophenecarboxylic acid [2-[2,5-dimethyl-1-(2-oxolanylmethyl)-3-pyrrolyl]-2-oxoethyl] ester], the concentration for a half-maximal effect (EC50) was found to be 8.31 µM.

Regarding `c1ccc(N2CCN(c3ncnc4c3oc3ccccc34)CC2)cc1` [4-(4-phenyl-1-piperazinyl)benzofuro[3,2-d]pyrimidine], the EC50 was > 95 µM. With `Cc1cc(C(=O)CC#N)c(C)n1-c1ccc(OC(F)F)cc1` [3-[1-[4-(difluoromethoxy)phenyl]-2,5-dimethyl-3-pyrrolyl]-3-oxopropanenitrile], the EC50 is > 30 µM. `CCCc1cc(C(=O)N2CCN(C(c3ccccc3)c3ccccc3)CC2)no1` [(4-benzhydrylpiperazin-1-yl)-(5-propyl-1,2-oxazol-3-yl)methanone]: the EC50 was 5.97 µM.

Turning to `CCC(C)c1ccc2oc(-c3ccc(NC(=O)Cn4cnc5c(=O)n(C)c(=O)n(C)c54)cc3)nc2c1` (stereo unspecified) [2-(2,6-diketo-1,3-dimethyl-purin-9-yl)-N-[4-(5-sec-butyl-1,3-benzoxazol-2-yl)phenyl]acetamide], the EC50 worked out at 1.59 µM. On the same count and under the same terms, with `Cc1cc(C=c2sc3nc4ccccc4n3c2=O)c(C)n1-c1ccccn1` [2-[(2,5-dimethyl-1-pyridin-2-yl-pyrrol-3-yl)methylidene]-[1,3]thiazolo[3,2-a]benzimidazol-1-one] the figure was 0.111 µM. As for `COc1ccc(-c2nc(-c3ccc(Br)o3)no2)cc1OC` [3-(5-bromanylfuran-2-yl)-5-(3,4-dimethoxyphenyl)-1,2,4-oxadiazole], the EC50 amounted to 5.87 µM. Turning to `COc1ccc(C(=O)C2C(=O)C(=O)N(CC3CCCO3)C2c2cccc(OC)c2)cc1` (stereo unspecified) [(4Z)-4-[hydroxy-(4-methoxyphenyl)methylene]-5-(3-methoxyphenyl)-1-(tetrahydrofurfuryl)pyrrolidine-2,3-quinone], the EC50 is > 95 µM.

Take `Cc1csc(SCC(=O)c2cc(C)n(Cc3cccs3)c2C)n1` [1-[2,5-dimethyl-1-(2-thenyl)pyrrol-3-yl]-2-[(4-methylthiazol-2-yl)thio]ethanone]: the concentration for a half-maximal effect (EC50) amounted to 7.01 µM. In the case of `COc1ccc(C(c2c(O)ccc3ccccc23)N2CCOCC2)c(OC)c1` (stereo unspecified) [1-[(2,4-dimethoxyphenyl)-(4-morpholinyl)methyl]-2-naphthalenol], the EC50 is 3.83 µM.

Take `Cn1nc(C(C)(C)C)cc1C(=O)NCc1ccc(N2CCCC2=O)cc1` [5-tert-Butyl-2-methyl-2H-pyrazole-3-carboxylic acid 4-(2-oxo-pyrrolidin-1-yl)-benzylamide]: the EC50 stood at 4.46 µM. Still for that read-out and setting: for `CC(=O)c1c(C)[nH]c(C(=O)OCCCCN2C(=O)c3ccccc3C2=O)c1C` [4-acetyl-3,5-dimethyl-1H-pyrrole-2-carboxylic acid 4-(1,3-dioxo-2-isoindolyl)butyl ester] the value was 2.1 µM; for `Cc1cccc(-n2ncc3c(N(C)C4CCCCC4)ncnc32)c1` [MLS000100814], > 95 µM; for `Cc1nnc(SCC(=O)N2CCC(c3noc4ccc(F)cc34)CC2)s1` [1-[4-(5-fluoranyl-1,2-benzoxazol-3-yl)piperidin-1-yl]-2-[(5-methyl-1,3,4-thiadiazol-2-yl)sulfanyl]ethanone], 8.2 µM. On the same count and under the same terms, with `CN1/C(=C/C(=O)c2nc(S(C)(=O)=O)ncc2Cl)C(C)(C)c2ccccc21` the figure was 9.04 µM; with `Cc1ccccc1-c1nnc(SCc2ccccc2F)o1` [2-[(2-fluorobenzyl)thio]-5-(2-methylphenyl)-1,3,4-oxadiazole], 1.27 µM; with `O=C1C2CCCN2C(c2cccnc2)N1c1cccc(Cl)c1` (stereo unspecified) [2-(3-chlorophenyl)-3-(3-pyridinyl)-5,6,7,7a-tetrahydro-3H-pyrrolo[1,2-c]imidazol-1-one], > 95 µM. `CC(C)OCCCNc1ncnc2c1[nH]c1ccc(F)cc12`: the EC50 is 5.48 µM. Consider `CCOc1ccc(-c2nc(-c3ccc(OC)cc3)no2)cc1OCC` [5-(3,4-Diethoxy-phenyl)-3-(4-methoxy-phenyl)-[1,2,4]oxadiazole], for which the EC50 turned out to be 0.732 µM. For the compound `COc1ccc(-c2nc(-c3cccc(C)c3)no2)cc1OC` [5-(3,4-dimethoxyphenyl)-3-(3-methylphenyl)-1,2,4-oxadiazole], the EC50 is 1.07 µM. For the compound `Cc1cccc(NC(=O)Nc2ccc(C#N)cc2)n1` [1-(4-cyanophenyl)-3-(6-methyl-2-pyridinyl)urea], the EC50 was > 30 µM.

`CCCc1ccc(Oc2c[nH]nc2-c2ccc(O)c(C)c2O)cc1` [SMR000024172]: the EC50 came out at 14.9 µM. Take `COC(=O)c1sc(NC(=O)c2ccc(OC)cc2OC)nc1C` [2-[(2,4-dimethoxybenzoyl)amino]-4-methyl-thiazole-5-carboxylic acid methyl ester]: the EC50 turned out to be 7.76 µM.

For `Fc1ccc(COc2ccc(C=Nn3cnnc3)cc2)cc1` [1-[4-[(4-fluorophenyl)methoxy]phenyl]-N-(1,2,4-triazol-4-yl)methanimine], the EC50 came to 6.53 µM. For `COc1ccc(-n2c(O)cc(Sc3nnc[nH]3)c2O)c(OC)c1` [1-(2,4-dimethoxyphenyl)-3-(1H-1,2,4-triazol-5-ylthio)pyrrolidine-2,5-dione], the EC50 was found to be 16.4 µM. The same measure, in the same setting: for `O=C(c1ccccc1)C(CCC(CN1CCOCC1)C(=O)c1ccccc1)CN1CCOCC1` (stereo unspecified) [2,5-bis(4-morpholinylmethyl)-1,6-diphenylhexane-1,6-dione;hydrochloride] the value was 4.14 µM; for `COc1ccc(-c2cn3c(C)c(C(=O)N4CCCc5ccccc54)sc3n2)cc1` [3,4-dihydro-2H-quinolin-1-yl-[6-(4-methoxyphenyl)-3-methyl-2-imidazo[2,1-b]thiazolyl]methanone], > 30 µM; for `N#C/C(=C/c1ccc(N2CCCCCC2)o1)c1ccc(F)cc1` [MLS000051438], > 10 µM.

As to `CC(C)COC(=O)NCCOC(=O)Nc1cccc(Cl)c1` [2-(2-methylpropoxycarbonylamino)ethyl N-(3-chlorophenyl)carbamate], the EC50 worked out at 8.05 µM. As to `O=C(NCc1ccccc1)N1CCN(c2ccc(Cl)c(Cl)c2)CC1` [4-(3,4-dichlorophenyl)-N-(phenylmethyl)-1-piperazinecarboxamide], the EC50 came out at 6.67 µM. With `O=C(Nc1ccc(N2CCCCC2)c(Cl)c1)c1nnc[nH]1`, the EC50 was determined as 0.879 µM. With `CC(C)(C)C1CCC2(CC1)C(C#N)=C(SCC(=O)Nc1ccccc1)NC(=O)C2C#N` (stereo unspecified) [2-[(9-tert-butyl-1,5-dicyano-2-oxidanylidene-3-azaspiro[5.5]undec-4-en-4-yl)sulfanyl]-N-phenyl-ethanamide], the EC50 came out at 4.71 µM. Take `Fc1ccccc1COc1ccc(C=Nn2cnnc2)cc1` [1-[4-[(2-fluorophenyl)methoxy]phenyl]-N-(1,2,4-triazol-4-yl)methanimine]: the EC50 turned out to be 4.74 µM.

As for `c1csc(CCNc2ncnc3sc4c(c23)CCC4)c1` [7,8-dihydro-6H-cyclopenta[4,5]thieno[1,2-c]pyrimidin-1-yl-[2-(2-thienyl)ethyl]amine], the EC50 was determined as 1.44 µM.

As to `Cc1cc(C(=O)CSc2nnc(-c3ccco3)o2)c(C)n1-c1ccc2c(c1)OCCO2` [1-[1-(2,3-dihydro-1,4-benzodioxin-6-yl)-2,5-dimethyl-3-pyrrolyl]-2-[[5-(2-furanyl)-1,3,4-oxadiazol-2-yl]thio]ethanone], the EC50 worked out at 9.32 µM. Turning to `Cc1nn(-c2nc3ccccc3s2)c(N)c1-c1ccccc1` [1-(1,3-benzothiazol-2-yl)-3-methyl-4-phenyl-1H-pyrazol-5-amine], the concentration giving a half-maximal response (EC50) turned out to be 0.385 µM. For the compound `Cc1ccnc(SCC(=O)Nc2sc3c(c2C#N)CCCC3)n1` [MLS000077260], the EC50 turned out to be 5.24 µM. For `CCCCOc1ncnc2c1[nH]c1ccc(F)cc12` [4-butoxy-8-fluoranyl-5H-pyrimido[5,4-b]indole], the EC50 was determined as 3.07 µM. On the same count and under the same terms, for `COc1ccc(-c2noc(-c3cc(C)cc(C)c3)n2)cc1OC` [3-(3,4-dimethoxyphenyl)-5-(3,5-dimethylphenyl)-1,2,4-oxadiazole] the value was 1.01 µM; for `Cc1ccc(-c2nnc(SCc3ccccc3F)o2)cc1` [2-[(2-fluorobenzyl)thio]-5-(4-methylphenyl)-1,3,4-oxadiazole], 1.14 µM.

Still in this assay, the particulars now being: inactive by the depositor's call.
For the compound `Cc1cccc(-c2nc(C#N)c(NC3CCCCC3)o2)c1` [5-(cyclohexylamino)-2-(3-methylphenyl)-1,3-oxazole-4-carbonitrile], the EC50 stood at 11.8 µM. In the case of `CCCn1c(CNc2ccc(Br)cc2)nc2ccccc21` [(4-bromophenyl)-[(1-propylbenzimidazol-2-yl)methyl]amine], the EC50 was found to be 12.8 µM. Turning to `CCc1ccc(-c2nc(CSCC(=O)N3CCN(c4ccccn4)CC3)c(C)o2)cc1` [1-[({[2-(4-ethylphenyl)-5-methyl-1,3-oxazol-4-yl]methyl}thio)acetyl]-4-pyridin-2-ylpiperazine], the EC50 is 11.5 µM. In the case of `CC1Cc2cc(-c3csc(NC(=O)Cc4cccs4)n3)ccc2N1S(C)(=O)=O` (stereo unspecified) [MLS000027766], the EC50 stood at 10.4 µM. `CC(=O)c1ccc(N2CCN(c3ccc(C(F)(F)F)cn3)CC2)cc1` [1-[4-[4-[5-(trifluoromethyl)-2-pyridinyl]-1-piperazinyl]phenyl]ethanone]: the EC50 was found to be 37 µM.

Consider `COc1ccc(Cc2nc(-c3ccc(-n4cccc4)cc3)no2)cc1OC` [3-(4-pyrrol-1-ylphenyl)-5-veratryl-1,2,4-oxadiazole], for which the EC50 was 13.4 µM. Take `COc1cccc(-c2cc(C(=O)Nc3ccccc3SC)no2)c1` [5-(3-methoxyphenyl)-N-(2-methylsulfanylphenyl)-1,2-oxazole-3-carboxamide]: the EC50 was 16 µM. As for `O=C(C1CC1)N1CCc2cc(S(=O)(=O)NCC3COc4ccccc4O3)ccc21` (stereo unspecified) [1-(cyclopropanecarbonyl)-N-(2,3-dihydro-1,4-benzodioxin-3-ylmethyl)-2,3-dihydroindole-5-sulfonamide], the EC50 was found to be 13.8 µM. `COc1ccc(-n2c(C)cc(C(=O)COC(=O)Cn3cnc4ccccc43)c2C)cc1` [2-(1-benzimidazolyl)acetic acid [2-[1-(4-methoxyphenyl)-2,5-dimethyl-3-pyrrolyl]-2-oxoethyl] ester]: the EC50 was 11.6 µM. The same measure, in the same setting: for `CC(=O)Nc1ccc(S(=O)(=O)N2CCN(c3cccc(C)c3C)CC2)cc1` [MLS000115810] the value was 16.7 µM; for `Cc1ccc(N2C(=O)c3cccc4c(N5CCN(C)CC5)ccc(c34)C2=O)c2cccnc12` [6-(4-methyl-1-piperazinyl)-2-(8-methyl-5-quinolinyl)-1H-benzo[de]isoquinoline-1,3(2H)-dione], 33.2 µM.
